Reference: patent US4203253A, “Process for increasing oleoresin synthesis in pinus species” (priority 1979, dated 1980)
Where two headings read alike, the source gives them in different places.

Key:
[1] = test system: slash pine (Pinus elliottii Engelm. var. elliottii); assay: Percent oleoresin in slash pine 2 1/2 years after treatment (Example II, Table II); type: in vivo; conditions: for Percent oleoresin: dry weight of section
Protocol: Replicate 40-year-old-slash pine (Pinus elliottii Engelm. var. elliottii) were treated with 5-milliliter aliquotes of 5 percent 2-chloroethylphosphonic acid in bore holes 0.6 meter above the ground. The trees were harvested in March, 1976, 21/2 years after treatment. Analysis of total extractives was made for given portions of the bole beginning 0.5 meter below the point of treatment application (Table II).
^a Percentage based on the dry weight of that section of the tree.
^b Control trees were wounded and treated with water.

[2] = test system: slash pine (Pinus elliottii Engelm. var. elliottii); assay: Average lightwood heights in slash pines (Example V, Table V); type: in vivo; conditions: for Average lightwood height: 0% 2-chloroethylphosphonic acid
Protocol: On October 6 and 7, 1975, a study was begun using replicate slash pine (Pinus elliottii Engelm. var. elliottii) to explore the action of 2-chloroethylphosphonic acid in combination with diquat and/or paraquat. Each tree in the study was treated three times. The first treatment was in October in 1975, the second in March of 1976, and the third in September of 1976. Each time 5 milliliters of a solution of 2-chloroethylphosphonic acid plus paraquat and/or diquat were applied to the tree in a bore hole angled to intersect approximately one-sixth of the trunk. After treatment, the bore hole was stoppered to prevent the escape of ethylene. The trees were cut during November and December of 1976.
^a Measured from point of treatment application.

[3] = cited from earlier work
[4] = test system: slash pine (Pinus elliottii Engelm. var. elliottii); type: in vivo; conditions: for Rosin yield: 6 months, extracted dry weight
Protocol: (§1) On Sept. 14, 1973, replicate slash pine (Pinus elliottii Engelm. var. elliottii) were treated with 5 milliliters of either 1 percent (wt.) paraquat, 1 percent (wt.) diquat, 1percent (wt.) diquat plus 5 percent (wt.) 2-chloroethylphosphonic acid or 5 percent (wt.) 2-chloroethylphosphonic acid solutions placed in a bore hole. Each type of treatment was applied to 25 trees selected at random. One tree from each treatment was cut in January 1974. […] Six trees from each treatment were cut in March of 1974, approximately 6 months after treatment.

rats = conditions: cited from earlier work
[5] = test system: red pine (Pinus resinosa); assay: Nonvolatile extractives and dry weight of treated red pine (Example I, Table I); type: in vivo; conditions: for Nonvolatile extractives, entire cross section: extracted dry weight
Description: Replicate 20-year-old plantation-grown red pine (Pinus resinosa) of a given diameter class were coned with a watertight cup. Three-hundred milliliters of 2-chloroethylphosphonic acid in various concentrations were placed in the cups, and shallow cuts one-third the circumference were made with a chisel into the xylem portion of the bole under the solution, at approximately 1.5 meters above the ground level. The treatment solution was normally adsorbed within a 24-hour period; this depended, however, on climatic conditions such as temperature and relative humidity. Trees were sacrificed 6 months after treatment and analyzed for nonvolatile extractives at given distances from the point of application, over the entire cross-section of the tree, except where noted (Table I).
^a Trees treated 5/26/76 and harvested 11/2/76. Each tree received 30
milliliters of the indicated concentration of 2chloroethylphosphonic acid
^b Distance in cm from point of treatment application.
^c Ovendry weight/fresh weight.
^d Percentage nonvolatile extractives based on the extracted dry
weight of a sample of the entire cross section.
^e Weight percentage 2chloroethylphosphonic acid in 300 milliliters o
the aqueous treatment solution.
^f Percentage nonvolatile extractives isolated from the visible
lightwood portion of each cross section based on the extracted dry weight
basis of the visible lightwood portion of each cross section.
^g Control trees were wounded and treated with water in the same
manner as the 2chloroethylphosphonic acidtreated trees.

[6] = test system: slash pine (Pinus elliottii Engelm. var. elliottii); assay: Oleoresin content and visible lightwood height in slash pines 26 months after treatment (Example IV, Table IV); type: in vivo; conditions: for Oleoresin content / Oleoresin content, average per unit total volume: 26 months; for Oleoresin content: extracted dry weight; for Visible lightwood height: 26 months after treatment
Protocol: as §1

[7] = test system: slash pine (Pinus elliottii Engelm. var. elliottii); type: in vivo; conditions: 0% 2-chloroethylphosphonic acid, 1.6 years
mice = conditions: asphyxiation by exclusion of oxygen; cited from earlier work
[8] = test system: endogenous ethylene production; conditions: systemically applied; cited from earlier work
[9] = 0.213 wt%, distance printed "+="
[10] = 1.064 wt%, distance "30." [sic]
[11] = bipyridilium 0.5% (wt) in total
[12] = distance above wound printed "0.05" m

For O=P(O)(O)CCCl [2-chloroethylphosphonic acid], the Percent oleoresin ([1]; 5% (wt), 0-3 m from application, 2 1/2 years) was 4.3%, the Percent oleoresin ([1]; 5% (wt), 3-6 m from application, 2 1/2 years) was 3.7% and the Percent oleoresin ([1]; 5% (wt), above 6 m from application, 2 1/2 years) was 3.1%. For the same compound, the “Percent oleoresin, average” value ([1]; 5% (wt), average, dry weight, 2 1/2 years) was 3.6%, the Visible lightwood ([1]; 5 percent, 2 1/2 years after treatment) was “No visible lightwood was observed” and the “Distance holding most of the increase in oleoresin production” value ([1]; 5 percent, 5 ml in bore holes) was 0-3 meters. The “Increase of volatile versus nonvolatile oleoresins” value ([1]; 5 percent, 5 ml in bore holes) was “A greater increase in the volatile (turpentine) than in the nonvolatile (resin) oleoresins”, the “Effect on lightwood stimulation by diquat and paraquat” value ([2]; Example V combinations) was “increases the lightwood stimulating effects of diquat and paraquat” and the “pH of a typical aqueous solution” value ([3]; typical aqueous solution) was 1.0 pH. The “pH above which hydrolysis begins and ethylene is released” value ([3]; xylem transport system of the tree) was greater than 5 pH, the Rosin yield ([4]; 0 m above wound) was 2.6 Pct and the “Stimulation of visible lightwood formation” value ([4]; 5 percent (wt.) alone, approximately 6 months) was “did not stimulate visible lightwood formation”. The LD50 dosage (rats) was 4,229 mg/kg, the “Dry weight (ovendry weight/fresh weight)” value ([5]; 0.0213 wt%, +15 cm from application) was 44.5 Pct and the “Nonvolatile extractives, entire cross section” value ([5]; 0.0213 wt%, +15 cm) was 3.7 Pct. The “Dry weight (ovendry weight/fresh weight)” value ([5]; 0.0213 wt%, +50 cm from application) was 46.6 Pct, the “Nonvolatile extractives, entire cross section” value ([5]; 0.0213 wt%, +50 cm) was 3.4 Pct and the “Dry weight (ovendry weight/fresh weight)” value ([5]; 0.0213 wt%, -15 cm from application) was 43.1 Pct. The “Nonvolatile extractives, entire cross section” value ([5]; 0.0213 wt%, -15 cm) was 3.1 Pct, the “Dry weight (ovendry weight/fresh weight)” value ([5]; 0.213 wt%, +15 cm from application) was 44.8 Pct and the “Nonvolatile extractives, entire cross section” value ([5]; 0.213 wt%, +15 cm) was 3.2 Pct. The “Dry weight (ovendry weight/fresh weight)” value ([5]; 0.213 wt%, -15 cm from application) was 45.5 Pct, the “Nonvolatile extractives, entire cross section” value ([5]; 0.213 wt%, -15 cm) was 3.4 Pct and the “Dry weight (ovendry weight/fresh weight)” value [5, 9] was 46.5 Pct. For the same compound, the “Nonvolatile extractives, entire cross section” value [5, 9] was 3.4 Pct, the “Increase of extractive content versus water-treated controls” value ([5]; 1.064 percent (wt.), red pine, 6 months) was “Doubling of the extractive content” and the “Dry weight (ovendry weight/fresh weight)” value ([5]; 1.064 wt%, +50 cm from application) was 56.7 Pct. The “Nonvolatile extractives, entire cross section” value ([5]; 1.064 wt%, +50 cm) was 7.2 Pct, the “Nonvolatile extractives, visible lightwood portion” value ([5]; 1.064 wt%, +50 cm) was 18.8 Pct and the “Dry weight (ovendry weight/fresh weight)” value ([5]; 1.064 wt%, +110 cm from application) was 50.3 Pct. For the same compound, the “Nonvolatile extractives, entire cross section” value ([5]; 1.064 wt%, +110 cm) was 3.4 Pct, the “Dry weight (ovendry weight/fresh weight)” value ([5]; 1.064 wt%, +150 cm from application) was 50.1 Pct and the “Nonvolatile extractives, entire cross section” value ([5]; 1.064 wt%, +150 cm) was 3.8 Pct. The “Dry weight (ovendry weight/fresh weight)” value ([5]; 1.064 wt%, -15 cm from application) was 54.1 Pct, the “Nonvolatile extractives, entire cross section” value ([5]; 1.064 wt%, -15 cm) was 4.0 Pct and the “Dry weight (ovendry weight/fresh weight)” value [5, 10] was 58.9 Pct. For the same compound, the “Nonvolatile extractives, entire cross section” value [5, 10] was 6.2 Pct, the “Nonvolatile extractives, visible lightwood portion” value [5, 10] was 9.3 Pct and the “Dry weight (ovendry weight/fresh weight)” value ([5]; 2.127 wt%, +15 cm from application) was 67.8 Pct. For the same compound, the “Nonvolatile extractives, entire cross section” value ([5]; 2.127 wt%, +15 cm) was 3.1 Pct, the “Dry weight (ovendry weight/fresh weight)” value ([5]; 2.127 wt%, +50 cm from application) was 69.7 Pct and the “Nonvolatile extractives, entire cross section” value ([5]; 2.127 wt%, +50 cm) was 3.1 Pct. The “Dry weight (ovendry weight/fresh weight)” value ([5]; 2.127 wt%, -15 cm from application) was 66.5 Pct, the “Nonvolatile extractives, entire cross section” value ([5]; 2.127 wt%, -15 cm) was 5.4 Pct and the “Change in dry weight percentage (oven dry weight/fresh weight)” value ([5]; treated trees, dehydration) was “increase in dry weight percentage”. The “Increase in extractives in visibly lightered portions versus control trees” value ([5]; visible lightering portions of cross section) was “three to six times that of control trees”.

Work on c1cc[n+]2c(c1)-c1cccc[n+]1CC2 [diquat] yielded an Average lightwood height [2, 11] of 1.8 meters, an Average lightwood height ([2]; bipyridilium 2% (wt) in total) of 3.1 meters and an Oleoresin content ([6]; 0.5-1 m above wound) of 9.6%. The Oleoresin content ([6]; 1-1.5 m above wound) was 4.5%, the Oleoresin content ([6]; 1.5-2.5 m above wound) was 3.5% and the Oleoresin content ([6]; 2.5-4.5 m above wound) was 2.8%. For the same compound, the Oleoresin content ([6]; 4.5-6.5 m above wound) was 1.9%, the Visible lightwood height [6] was 2.5-3 meters and the “Oleoresin content, average per unit total volume” value [6] was 4.1%. It also gave an Oleoresin content [6, 12] of 8.9%, a Rosin yield ([4]; 0 m above wound) of 5.5 Pct and a Rosin yield ([4]; 0.5 m above wound) of 2.1 Pct. For the same compound, the Rosin yield ([4]; 1 m above wound) was 2.3 Pct, the “Height of oleoresin soaked wood (visible lightwood)” value ([4]; in vivo) was “less than diquat plus 2-chloroethylphosphonic acid-treated trees” and the “Extractive content in total merchantable length” value ([7]; bipyridilium 0.5% (wt)) was 15.2 lbs. extractives per average tree. For the same compound, the “Extractive content in total merchantable length” value ([7]; bipyridilium 2% (wt)) was 17.3 lbs. extractives per average tree and the LD50 dosage (rats) was 100 mg/kg.

In the case of C=C [ethylene], the “toxic concentration of gaseous ethylene” value (mice) is listed as 950,000 ppm.

In the case of CCCN [n-propylamine], the LD50 dosage (rats) is given as 560 mg/kg.

C[n+]1ccc(-c2cc[n+](C)cc2)cc1 [paraquat] gave an Average lightwood height [2, 11] of 1.4 meters, an Average lightwood height ([2]; bipyridilium 2% (wt) in total) of 2.8 meters and an Oleoresin content ([6]; 0.5-1 m above wound) of 12.2%. The Oleoresin content ([6]; 1-1.5 m above wound) was 5.9%, the Oleoresin content ([6]; 1.5-2.5 m above wound) was 3.7% and the Oleoresin content ([6]; 2.5-4.5 m above wound) was 2.4%. The Oleoresin content ([6]; 4.5-6.5 m above wound) was 2.0%, the Visible lightwood height [6] was no more than 2 meters and the “Oleoresin content, average per unit total volume” value [6] was 4.6%. The Oleoresin content [6, 12] was 10.7%, the Rosin yield ([4]; 0 m above wound) was 8.1 Pct and the Rosin yield ([4]; 0.5 m above wound) was 2.0 Pct. The “Height of oleoresin soaked wood (visible lightwood)” value ([4]; cut March 1974, approximately 6 months) was “less than in diquat-treated trees”, the endogenous ethylene production [8] was “marked stimulation of endogenous ethylene production” and the respiration rates [8] was “rapid increase in respiration rates”. The “Extractive content in total merchantable length” value ([7]; bipyridilium 0.5% (wt)) was 14.8 lbs. extractives per average tree, the “Extractive content in total merchantable length” value ([7]; bipyridilium 2% (wt)) was 17.1 lbs. extractives per average tree and the LD50 dosage (rats) was 100 mg/kg.
